Here are results for 13 molecules from PubChem BioAssay (NCI).

Test systems include A498 renal; DMS 273 small cell lung; HCT-15 colon; HS 578T breast; LXFL 529 NSCLC; OVCAR-5 ovarian; OVCAR-8 ovarian; PC-3 prostate; SW-620 colon; NCI/ADR-RES ovarian.
Common to all, as to assay: NCI tumour cell line growth inhibition, 48 h

Molecules are shown by their SMILES.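 Interpolation was linear, between the two tested concentrations surrounding the appropriate level; five concentrations were tested over 48 hours in 96-well plates. At the GI50, growth is halved. TGI: total growth inhibition.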

Turning to `O=C(NC(=O)c1ccccc1[N+](=O)[O-])Nc1ccc(Oc2ncc(Cl)cn2)c(C(F)(F)F)c1`, the TGI is 1.29 µM with A498 renal; 0.669 µM in the test with DMS 273 small cell lung; over 38.1 µM in the test with HCT-15 colon; 2.45 µM with HS 578T breast; over 43.9 µM with LXFL 529 NSCLC; 80.4 µM in the test on OVCAR-5 ovarian. Moreover, the TGI in the test on OVCAR-8 ovarian was 9.71 µM; with PC-3 prostate, 65.8 nM; in the test with SW-620 colon, over 11.9 µM.

With `CCCCCCCCCCC(C)CCCCCCC(=O)O` (configuration not stated), the TGI with A498 renal, with DMS 273 small cell lung, in the test with HCT-15 colon, with LXFL 529 NSCLC, in the test on OVCAR-5 ovarian and with OVCAR-8 ovarian was over 100 µM throughout. The same molecule displayed a TGI in the test on SW-620 colon of over 100 µM.

Take `CC(=O)[CH-]C(=O)c1ccccc1.CC(=O)[CH-]C(=O)c1ccccc1.CC[O-].O=C1c2ccccc2C(=O)c2c1ccc(O)c2[O-].[Ti+4]`: the TGI with A498 renal was 83.5 µM; in the test with DMS 273 small cell lung, over 100 µM; in the test with HCT-15 colon it was over 100 µM; in the test with LXFL 529 NSCLC, over 100 µM; with OVCAR-5 ovarian it was over 100 µM; with OVCAR-8 ovarian, over 100 µM. The molecule further had a TGI in the test on SW-620 colon of over 100 µM.

As for `O=S1Nc2c(Cl)cc(Cl)c(Cl)c2S1` (configuration not stated), the TGI with A498 renal, in the test on DMS 273 small cell lung, in the test on HCT-15 colon, in the test with LXFL 529 NSCLC, with OVCAR-5 ovarian and in the test on OVCAR-8 ovarian was over 100 µM in each case. In the test on SW-620 colon, this molecule yielded a TGI of 21.1 µM.

Take `CCCCCCCCCCCCCCCCCC(=O)Nc1ccn(C2OC(CO)C(O)C2O)c(=O)n1` (configuration not stated): the TGI in the test on A498 renal was 99 µM; in the test on DMS 273 small cell lung it was over 100 µM; in the test with HCT-15 colon it was over 100 µM; in the test on HS 578T breast, over 100 µM; in the test with LXFL 529 NSCLC, over 100 µM; with NCI/ADR-RES ovarian it was over 100 µM. Also, the TGI with OVCAR-5 ovarian was over 100 µM; in the test on OVCAR-8 ovarian it was over 84.8 µM; in the test with PC-3 prostate, over 100000 nM; in the test with SW-620 colon, over 100 µM.

With `O=NN(CCCl)C(=O)NC1CCC(CC2CCC(NC(=O)N(CCCl)N=O)CC2)CC1` (configuration not stated), the TGI is 93.9 µM in the test on A498 renal; 85.5 µM with DMS 273 small cell lung; over 76.9 µM in the test on HCT-15 colon; over 100 µM in the test on LXFL 529 NSCLC; 77.9 µM in the test with NCI/ADR-RES ovarian; over 100 µM in the test on OVCAR-5 ovarian. The TGI was over 31.6 µM with OVCAR-8 ovarian and over 51.3 µM in the test on SW-620 colon.

Consider `CC(C)=CC(=O)Cc1nc2ccc([N+](=O)[O-])cc2[nH]c1=O`, for which the TGI in the test on A498 renal, in the test on DMS 273 small cell lung, with HCT-15 colon, in the test with LXFL 529 NSCLC, in the test on OVCAR-5 ovarian and in the test with OVCAR-8 ovarian was over 100 µM each time. In the test with SW-620 colon, this molecule yielded a TGI of over 100 µM.

As for `CN(C)CC/C(=N\Nc1ccc(Cl)cc1Cl)c1ccccc1`, the TGI in the test on A498 renal worked out at 30.1 µM; with DMS 273 small cell lung, 27 µM; in the test on HCT-15 colon, 24.9 µM; in the test with LXFL 529 NSCLC, 25.9 µM; in the test on OVCAR-5 ovarian, 30.7 µM; with OVCAR-8 ovarian, 34.9 µM. Moreover, in the test on SW-620 colon, the TGI is 29.5 µM.

Take `CCN(CC)C(=S)[S][Bi]([S]C(=S)N(CC)CC)[S]C(=S)N(CC)CC`: the GI50 in the test on A498 renal was 1240 nM; in the test on DMS 273 small cell lung, 56 nM; in the test on HCT-15 colon, 164 nM; in the test on HS 578T breast it was 2640 nM; with LXFL 529 NSCLC, 142 nM; in the test with NCI/ADR-RES ovarian, 277 nM. The GI50 in the test with OVCAR-5 ovarian is 539 nM; in the test on OVCAR-8 ovarian, 284 nM; in the test with PC-3 prostate, 263 nM; with SW-620 colon, 91.6 nM. Also, the TGI in the test with A498 renal amounted to 2.49 µM; in the test on DMS 273 small cell lung it was 0.221 µM; with HCT-15 colon it was 0.348 µM; with HS 578T breast it was 5.87 µM; in the test on LXFL 529 NSCLC, 0.275 µM; in the test with NCI/ADR-RES ovarian it was 0.85 µM. The TGI with OVCAR-5 ovarian came to 1.07 µM; in the test on OVCAR-8 ovarian, 0.755 µM; with PC-3 prostate, 1040 nM; in the test on SW-620 colon, 0.229 µM.

Consider `CCC[CH2][Sn]1([CH2]CCC)[O]CC(C)[O]1` (configuration not stated), for which the GI50 in the test on A498 renal was 2600 nM; in the test with DMS 273 small cell lung, 1260 nM; in the test with HCT-15 colon, 1100 nM; in the test on LXFL 529 NSCLC, 149 nM; with OVCAR-5 ovarian it was 2030 nM; in the test with OVCAR-8 ovarian it was 1590 nM. Moreover, in the test with SW-620 colon, the GI50 is 460 nM. Also, the TGI in the test with A498 renal came to 4.68 µM; with DMS 273 small cell lung, 2.66 µM; in the test with HCT-15 colon, 2.35 µM; in the test with LXFL 529 NSCLC, 1.35 µM; with OVCAR-5 ovarian, 7.45 µM; with OVCAR-8 ovarian, 3.47 µM. In the test on SW-620 colon, this molecule registered a TGI of 1.83 µM.

As to `CN1C/C(=C\C=C\c2ccccc2)C(=O)/C(=C/C=C/c2ccccc2)C1`, the TGI in the test on A498 renal, with DMS 273 small cell lung, in the test with HCT-15 colon, with LXFL 529 NSCLC, in the test with OVCAR-5 ovarian and in the test with OVCAR-8 ovarian was over 100 µM throughout. Besides, the TGI with SW-620 colon is over 100 µM.

With `CC1(C)N=C(c2ccccn2)C(c2ccccn2)=NC1(C)C`, the TGI in the test with A498 renal, in the test on DMS 273 small cell lung, in the test with HCT-15 colon, with LXFL 529 NSCLC, in the test with OVCAR-5 ovarian and in the test with OVCAR-8 ovarian was over 100 µM throughout. Also, in the test with SW-620 colon, the TGI was over 100 µM.

Consider `CCN(CC)CCNC(=O)c1cccc2nc3ccccc3nc12`, for which the TGI in the test on A498 renal is 30.9 µM; with DMS 273 small cell lung, over 100 µM; with HCT-15 colon, 41.8 µM; in the test with LXFL 529 NSCLC, over 87.9 µM; in the test on OVCAR-5 ovarian, 41.6 µM; with OVCAR-8 ovarian, over 100 µM. This molecule gave a TGI in the test with SW-620 colon of over 47.1 µM.
